Laboratory results published in patent publication US4303640A, “Oil-in-water organophosphorus insecticidal emulsion” (priority 1979, dated 1981).
Values after ≈ are worked out from the molar mass of the structure shown.

Tests used:
physchem = conditions: water
[1] = size of emulsified particles of the active ingredient (microscope); format: physicochemical; conditions: oil-in-water emulsion, as prepared
Procedure: A brief description of the method of producing the oil-in-water insecticidal emulsion of this invention will be given below. First, an insecticidally active liquid ingredient of the organophosphorus compound is added to a 2 to 20 wt% aqueous solution of polyvinyl alcohol or gum arabic, and a conventonal stirrer such as a T.K. Homomixer (a homogenizer manufactured by Tokushu Kika Kogyo Co., Ltd.) or a Shinagawa All-Purpose Mixer (a mixer manufactured by San-Ei-Seisakusho, Ltd.) is used to disperse the particles of the active ingredient (A.I.), generally at ambient temperature or, if necessary, at an elevated temperature (about 40° to 80° C.). The size of the emulsified particles of the active ingredient can be varied wihtin the range of from about 1 to 200μ depending upon the stirring force or the content of polyvinyl alcohol or gum arabic. A microscope is used to check the size of the emulsified particles of the active ingredient. Finally, for the purpose of preventing settling of the emulsified particles and improving the dispersion stability, an aqueous solution of a thickener is added to the emulsion in a suitable amount. The resulting oil-in-water insecticidal emulsion remains stable for an extended period. […]

Structure (SMILES) | solubility (physchem) | water-solubility at 10° C. | Particle Size of emulsified active ingredient [1]
COP(=O)(Cc1cccc(C#N)c1)OC | ~6000 µg/mL (≈ 26600 µM) | ca. 6,000 ppm | –
COP(=S)(OC)Oc1ccc([N+](=O)[O-])c(C)c1 [Compound (1), O,O-dimethyl O-(3-methyl-4-nitrophenyl)phosphorothioate] | 5 µg/mL (≈ 18 µM) | – | 1 to 30 μ
CCOC(=O)CC(SP(=S)(OC)OC)C(=O)OCC (stereo not drawn) [Compound (2), O,O-dimethyl S-[1,2-di-(ethoxycarbonyl)ethyl]-phosphorodithioate] | 145 µg/mL (≈ 439 µM) | – | –
COP(=S)(OC)Oc1ccc(C#N)cc1 [Compound (3), O,O-dimethyl O-(4-cyanophenyl)phosphorothioate] | 28 µg/mL (≈ 115 µM) | – | 1 to 50 μ
CCOC(=O)C(SP(=S)(OC)OC)c1ccccc1 (stereo not drawn) [Compound (4), O,O-dimethyl S-[α-(ethoxycarbonyl)benzyl]-phosphorodithioate] | 4 µg/mL (≈ 12.5 µM) | – | –
